These results are taken from publication PMC3806465, “Discovery and Evaluation of Thiazinoquinones as Anti-Protozoal Agents” (Marine Drugs, 2013).

Series [1] has as its system Trypanosoma brucei rhodesiense, STIB 900 strain, trypomastigotes stage. As to the kind of experiment: In vitro activity against T. b. rhodesiense. It is filed as cell-based. Particulars: Trypanosoma brucei; STIB 900, trypomastigotes; average of two independent assays; read-out: IC50 T. b. rhod. The procedure: (§1) The in vitro activities against the protozoan parasites T.b. rhodesiense, T. cruzi, L. donovani, and P. falciparum and cytotoxicity assessment against L6 cells were determined as reported elsewhere.

Series [2] deals with Trypanosoma cruzi, Tulahuen C4 strain, amastigotes stage. The series can be described thus: In vitro activity against T. cruzi. It is filed as cell-based. The settings on record: Trypanosoma cruzi, TULAHUEN, Tulahuen C4, amastigotes; average of two independent assays; read-out: IC50 T. cruzi. The procedure: as §1
Series [3] has as its system Leishmania donovani, MHOM-ET-67/L82 strain, amastigote/axenic stage. The series can be described thus: In vitro activity against L. donovani. It is filed as cell-based. Particulars: Leishmania donovani, MHOM-ET-67/L82, axenic amastigotes; average of two independent assays; read-out: IC50 L. don. The procedure: as §1
In series [4] the test system is Plasmodium falciparum, K1 strain, IEF stage. As to the kind of experiment: In vitro activity against P. falciparum K1. The settings on record: for IC50: Plasmodium falciparum, K1 dual drug resistant strain, IEF stage, average of two independent assays, read-out: IC50 P. falc. K1; for SI Pf: Selectivity index for P. falciparum = IC50 L6/IC50 Pf. It is filed as cell-based. As for the experimental part: as §1

Series [5] has as its system L6 rat skeletal myoblast cell line. As to the kind of experiment: Cytotoxicity against L6 cells. The class given is cell-based. The settings on record: Rattus norvegicus, Myoblast, cytotoxicity, L6 rat skeletal myoblasts; average of two independent assays; read-out: IC50 L6. The procedure: as §1
The subject of series [6] is GFP-transfected P. berghei strain ANKA. The series can be described thus: In vivo anti-malarial efficacy in P. berghei infected mice. The arrangement: species or system NMRI mice. The procedure: Furan carboxylic acid analogue 16 was selected for preliminary proof-of-principle in vivo evaluation in Plasmodium berghei infected mice. […] Switching to an oral dosing experiment (100 mg/kg once per day for 4 days) yielded a 47% reduction of parasitaemia. Although not considered significant, these levels of activity for both ip and po dosing clearly identifies heterocyclic dioxothiazinoquinone carboxylic acids to be a novel anti-malarial drug scaffold warranting further structure-activity relationship studies.
In vivo anti-malarial activity was assessed as previously described. Groups of three female NMRI mice (20–22 g) were intravenously infected with 2 × 10^7 parasitized erythrocytes on day 0 with GFP-transfected P. berghei strain ANKA [24]. Compounds were formulated in 100% DMSO, diluted 10-fold in distilled water and administered intraperitoneally in a volume of 10 ml kg^−1 on four consecutive days (4, 24, 48 and 72 h post infection). Control experiments used DMSO-H2O vehicle alone. Parasitemia was determined on day 4 post infection (24 h after last treatment) by FACS analysis. Activity was calculated as the difference between the mean per cent parasitaemia for the control (n = 5 mice) and treated groups expressed as a per cent relative to the control group. The survival of the animals was usually monitored up to 30 days: a compound was considered curative if the animal survived to day 30 after infection with no detectable parasites. In vivo efficacy studies in mice were conducted according to the rules and regulations for the protection of animal rights (“Tierschutzverordnung”) of the Swiss “Bundesamt für Veterinärwesen”. They were approved by the veterinary office of Canton Basel-Stadt, Switzerland.

For series [7] the following is noted: in vivo, 150 mg/kg.

Usually IC50 stands for the concentration needed to halve the response being measured. As to `O=C(O)c1cc2c(o1)C(=O)C1=C(C2=O)S(=O)(=O)CCN1` [Compound 16, 5,9-Dioxo-3,4,5,9-tetrahydro-2H-benzofuro[5,6-b][1,4]thiazine-7-carboxylic Acid 1,1-Dioxide], the half-maximal inhibitory concentration (IC50) in series [1] is 7.5 µM; in series [2] it was above 300 µM; in series [3], above 300 µM; in series [4], 0.12 µM; in series [5], 290 µM. The “SI Pf” value in series [4] was found to be 2400. This compound also displayed a reduction in parasitaemia in series [6] (ip 50 (mg/kg)/day for four days) of 85.7%. This compound had a mean survival time in series [6] (ip 50 (mg/kg)/day for four days, untreated control 4–6 days) of 9.6 days. This compound also displayed a reduction of parasitaemia in series [6] (oral 100 mg/kg once per day for 4 days) of 47%. For the same compound, the ip acute toxicity entry in series [7] is listed as “no toxicity”.

As a reminder, the melting point is the temperature, or range, at which the solid turns liquid. `O=C(O)c1cc2c(o1)C(=O)C1=C(C2=O)S(=O)(=O)C=CN1` [Compound 17, 5,9-Dioxo-5,9-dihydro-4H-benzofuro[5,6-b][1,4]thiazine-7-carboxylic Acid 1,1-Dioxide]: the melting point was 280 °C (dec.). Also, in series [1], the IC50 turned out to be 2.7 µM. The IC50 in series [2] is above 300 µM. Also, the IC50 in series [3] amounted to 120 µM. In addition, in series [4], the IC50 was 0.34 µM and the “SI Pf” value turned out to be 560. The IC50 in series [5] was 190 µM.
